Like-named read-outs stand apart in the source and are kept apart here.
Tests used:
[1] = test system: mice being in the 16th to 17th day of their pregnancy; test: Abortion induction in mice in the 3rd trimestre of pregnancy, subcutaneous; type: in vivo; conditions: pregnant mice; for ED50: Mus musculus, sc, 16th to 17th day, subcutaneous, abortions within 48 hours, obtained by interpolation, read-out: Approx. ED50 (dose inducing abortion in 50 percent of the animals)
Protocol: According to one of the test methods /M. J. K. Harper and R. C. Skarnes: Advances in Biosciences 9, 789 /1973// the test material was administered subcutaneously to mice being in the 16th to 17th day of their pregnancy /3rd trimestre/, then the number of abortions ensuing with 48 hours was registered, as well as the live and dead fetuses following the removal of the uterus, and the scars on the placenta.
(§1) Applying the above methods the dose-response relationship was established at PGF2α, and its methyl ester, as well as the compounds of general formula I of the present invention. The number of animals was 5 per dose.

[2] = test system: pregnant mice; conditions: mouse, in vivo
[3] = test system: rats treated on the 4th, 5th, 6th and 7th day of pregnancy; test: Interruption of early pregnancy in rats; type: in vivo; conditions: rat, 1st trimestre, treated day 4, 5, 6, 7, killed day 9; read-out: Approx. ED50
Protocol: (§2) Here hamsters being in the 4th, 5th, and 6th day of pregnancy were treated subcutaneously, and following autopsy on the 8th day, the number of intrauterine embryonal implantations, as well as the condition of the ovaria were investigated /N. S. Crossley: Prostaglandins 10, 5 /1975//. Similarly rats were treated on the 4th, 5th, 6th and 7th day of pregnancy, and killed on the 9th day, and the interruption of pregnancy registered at the autopsy /W. Skuballa et al.: J. Med. Chem. […], 443 /1978//.
as §1
(§3) A similar increase in potency could be observed at the treatment of animals being in the 1st trimestre of their pregnancy.

[4] = test system: hamsters being in the 4th, 5th, and 6th day of pregnancy; test: Interruption of early pregnancy in hamsters, subcutaneous; type: in vivo, hamster; conditions: for ED50: Mesocricetus auratus, sc, hamster, 1st trimestre, treated subcutaneously day 4, 5, 6, autopsy day 8, read-out: Approx. ED50
Protocol: as §2, §1, §3
The 50 fold increase in potency compared to that of PGF2α is especially worth mentioning in the case of hamsters, as this test is suitable for the sensitive detection of the abortive effect of a given compound if it has lutheolytic activity.

| Structure (SMILES) | ED50 [1] | potency compared to PGF2α ([1]; from ED50 values) | potency compared to PGF2α methyl ester ([1]; from ED50 values) | induction of diarrhoea ([2]; 3 mg/kg) | ED50 [3] | ED50 [4] | increase in potency compared to that of PGF2α ([4]; hamsters) | incidence of diarrhoea ([2]; 3 mg/kg) | incidence of diarrhoea ([2]; 10 mg/kg) |
| --- | --- | --- | --- | --- | --- | --- | --- | --- | --- |
| COC(=O)CCC/C=C\C[C@@H]1[C@@H](/C=C/C(O)[C@@H](N)Cc2ccccc2)[C@H](O)C[C@@H]1O (single isomer, unassigned) [9α,11α,15/.xi./-Trihydroxy-16/S/-amino-17-phenyl-5-cis,13-trans-18,19,20-trinor-prostadienoic acid methyl ester] | ~1.2 mg/kg | 13 fold | 8 fold | failed to induce diarrhoea | ~0.1 mg/kg | ~0.0005 mg/kg | 50 fold |  |  |
| CCCCC[C@H](O)/C=C/[C@@H]1[C@@H](C/C=C\CCCC(=O)OC)[C@@H](O)C[C@H]1O [PGF2α -methyl ester, reference compound] | ~10 mg/kg |  |  |  |  |  |  | over 50% |  |
| CCCCC[C@H](O)/C=C/[C@@H]1[C@@H](C/C=C\CCCC(=O)O)[C@@H](O)C[C@H]1O [PGF2α, reference compound] | ~16 mg/kg |  |  |  | ~1 mg/kg | ~0.025 mg/kg |  |  | over 50% |
